In patent publication US20070293580A1, “Methods for Buccal, Lingual or Sublingual Dosing Regimens of Epinephrine for the Treatment of Allergic Emergencies” (priority 2006, published 2007):

Legend:
[1] = tested on: symptoms of anaphylaxis; settings: 40 mg
Method: (§1) A patient experiencing an allergic emergency initiates treatment at the onset of shortness of breath by self administering 40 mg of epinephrine free base in a buccal dosage form.
as §1

[2] = tested on: symptoms of anaphylaxis; settings: 30 mg, then 45 mg at approximately 5 minute intervals without amelioration, within about five minutes after the third dose
Method: A patient experiencing an allergic emergency initiates treatment at the onset of shortness of breath by self administering 30 mg of epinephrine free base in a lingual dosage form. After approximately 5 minutes pass without amelioration of the symptoms of anaphylaxis, the patient self administers a second lingual dosage form comprising 30 mg of epinephrine free base. After another approximately 5 minutes pass without amelioration of the symptoms of anaphylaxis, the patient self administers a third lingual dosage form comprising 45 mg of epinephrine free base.

CNC[C@H](O)c1ccc(O)c(O)c1 [epinephrine free base, epinephrine]
symptoms of anaphylaxis are relieved: patient's symptoms of anaphylaxis after the third buccal dose ([1]; then 60 mg at approximately 5 minute intervals without amelioration, within about five minutes after the third dose) | patient's symptoms of anaphylaxis after the second buccal dose ([1]; then second 40 mg after approximately 5 minutes without amelioration, within about five minutes after the second dose) | patient's symptoms of anaphylaxis after the third lingual dose [2]
